Assay results: ChEMBL document CHEMBL1126591, “Dibenz[b,e]oxepin derivatives: novel antiallergic agents possessing thromboxane A2 and histamine H1 dual antagonizing activity. 1” (J Med Chem, 1993)
Active and inactive are the calls of the source. No cut-off for these calls is given here.

target: D(2) dopamine receptor (Rattus norvegicus, UniProt P61169); assay: Inhibition of dopamine receptor binding at a concentration of 10 uM; Showed negligible activities; conditions: not given
Sequence (P61169 whole entry): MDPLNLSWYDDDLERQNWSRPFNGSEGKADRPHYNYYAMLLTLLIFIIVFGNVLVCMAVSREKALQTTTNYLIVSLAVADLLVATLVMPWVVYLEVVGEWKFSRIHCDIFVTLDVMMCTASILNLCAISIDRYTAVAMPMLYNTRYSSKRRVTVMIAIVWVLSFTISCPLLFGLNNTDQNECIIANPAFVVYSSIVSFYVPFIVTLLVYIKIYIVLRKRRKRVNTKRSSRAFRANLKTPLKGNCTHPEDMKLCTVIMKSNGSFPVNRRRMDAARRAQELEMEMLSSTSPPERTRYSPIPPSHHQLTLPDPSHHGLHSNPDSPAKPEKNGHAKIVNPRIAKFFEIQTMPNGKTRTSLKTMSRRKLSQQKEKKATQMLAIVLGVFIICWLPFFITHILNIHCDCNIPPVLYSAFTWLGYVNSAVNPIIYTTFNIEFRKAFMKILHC

For `O=C(O)Cc1ccc2c(c1)/C(=C/CN1CCC(Cc3ccccc3)CC1)c1ccccc1CO2`, the Ki was “Not Active”.

target: Histamine H1 receptor (Cavia porcellus) (UniProt P31389); assay: Inhibitory effect on the specific binding of [3H]pyrilamine to guinea pig cerebellum histamine H1 receptor at 1 uM; format: tissue-based; conditions: not given
Sequence (P31389 whole entry): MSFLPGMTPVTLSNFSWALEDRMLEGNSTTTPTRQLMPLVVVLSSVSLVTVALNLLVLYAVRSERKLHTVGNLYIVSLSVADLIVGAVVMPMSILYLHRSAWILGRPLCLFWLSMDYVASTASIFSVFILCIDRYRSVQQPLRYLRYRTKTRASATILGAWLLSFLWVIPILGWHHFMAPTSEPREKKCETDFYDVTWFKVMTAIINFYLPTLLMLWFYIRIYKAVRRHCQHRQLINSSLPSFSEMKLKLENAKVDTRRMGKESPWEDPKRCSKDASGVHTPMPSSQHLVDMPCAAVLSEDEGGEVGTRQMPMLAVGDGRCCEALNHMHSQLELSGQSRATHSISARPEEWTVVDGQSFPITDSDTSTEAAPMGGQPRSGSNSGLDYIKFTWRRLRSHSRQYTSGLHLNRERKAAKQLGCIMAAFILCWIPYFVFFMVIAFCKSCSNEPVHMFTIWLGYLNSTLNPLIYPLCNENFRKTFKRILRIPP

`O=C(O)c1ccc2c(c1)C(SCCNS(=O)(=O)c1ccccc1)c1ccccc1CO2` (centres undefined) and `O=C(O)COc1ccc(CCNS(=O)(=O)c2ccccc2)cc1` [SULOTROBAN] are the same in inhibition: 0% for the first, 0% for the second.

In the case of `O=C(O)c1ccc2c(c1)/C(=C/CN1CCN(c3ccc(F)cc3)CC1)c1ccccc1CO2`, the inhibition is reported as 3%.

target: Histamine H1 receptor (Cavia porcellus, UniProt P31389); assay: Inhibition of the specific binding of [3H]pyrilamine to guinea pig cerebellum histamine H1 receptor; format: tissue-based; conditions: not given
Sequence (P31389 whole entry): as above

Going from `O=C(O)c1ccc2c(c1)C(SCCN1CCC(Cc3ccccc3)CC1)c1ccccc1CO2` (racemic) to `O=C(O)Cc1ccc2c(c1)C(SCCN1CCC(Cc3ccccc3)CC1)c1ccccc1CO2` (centres undefined), the Ki falls from 18 nM to 10 nM (1.8-fold). The second binds more tightly here.

Going from `CN(C)CCSC1c2ccccc2COc2ccc(C(=O)O)cc21` (centres undefined) to `O=C(O)c1ccc2c(c1)C(SCCN1CCOCC1)c1ccccc1CO2` (centres undefined), the Ki rises from 9 nM to 42 nM (4.7-fold). The first binds more tightly here.

Going from `O=C(O)CCc1ccc2c(c1)C(SCCN1CCC(Cc3ccccc3)CC1)c1ccccc1CO2` (centres undefined) to `O=C(O)c1ccc2c(c1)C(SCCN1CCC(Cc3ccccc3)CC1)c1ccccc1CO2` (stereo in doubt; (-)12), the Ki rises from 12 nM to 740 nM (62-fold).

`O=C(O)c1ccc2c(c1)C(SCCN1CCN(c3ccc(F)cc3)CC1)c1ccccc1CO2` (centres undefined) and `O=C(O)c1ccc2c(c1)C(SCCN1CCN(c3ccccc3)CC1)c1ccccc1CO2` (centres undefined) are within 1.5-fold of each other in Ki: 41 nM for the first, 47 nM for the second.

Going from `O=C(O)c1ccc2c(c1)C(SCCN1CCC(c3ccccc3)CC1)c1ccccc1CO2` (centres undefined) to `O=C(O)c1ccc2c(c1)C(SCCN1CCC(Cc3ccccc3)CC1)c1ccccc1CO2` (stereo in doubt; (+)12), the Ki falls from 20 nM to 9.9 nM (2-fold). The second binds more tightly here.

Going from `O=C(O)c1ccc2c(c1)C(SCCN1CCC(n3c(O)nc4ccccc43)CC1)c1ccccc1CO2` (centres undefined) to `O=C(O)c1ccc2c(c1)C(SCCN1CCc3ccccc3C1)c1ccccc1CO2` (centres undefined), the Ki falls from 500 nM to 6.9 nM (72-fold).

`CC(C)(C(=O)O)c1ccc2c(c1)C(SCCN1CCC(Cc3ccccc3)CC1)c1ccccc1CO2` (centres undefined) and `O=C(O)c1ccc2c(c1)C(SCCN1CCN(Cc3ccccc3)CC1)c1ccccc1CO2` (centres undefined) are within 1.5-fold of each other in Ki: 17 nM for the first, 14 nM for the second.

`O=C(O)Cc1ccc2c(c1)/C(=C\CN1CCC(Cc3ccccc3)CC1)c1ccccc1CO2` and `O=C(O)Cc1ccc2c(c1)/C(=C/CN1CCC(Cc3ccccc3)CC1)c1ccccc1CO2` are within 1.5-fold of each other in Ki: 15 nM for the first, 20 nM for the second.

target: Histamine H2 receptor (Rattus norvegicus, UniProt P25102); assay: Inhibition of H2 histamine receptor binding at a concentration of 10 uM; Showed negligible activities; conditions: not given
Sequence (P25102 whole entry): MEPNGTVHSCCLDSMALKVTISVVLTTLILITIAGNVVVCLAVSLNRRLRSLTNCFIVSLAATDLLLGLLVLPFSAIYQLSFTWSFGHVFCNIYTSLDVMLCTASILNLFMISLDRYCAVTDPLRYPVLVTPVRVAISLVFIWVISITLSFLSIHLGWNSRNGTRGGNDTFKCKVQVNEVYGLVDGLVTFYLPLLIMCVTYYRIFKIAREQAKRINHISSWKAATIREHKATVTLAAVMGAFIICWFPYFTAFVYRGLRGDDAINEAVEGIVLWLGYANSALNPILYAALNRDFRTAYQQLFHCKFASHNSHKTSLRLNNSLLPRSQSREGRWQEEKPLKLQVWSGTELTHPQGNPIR

In the case of `O=C(O)Cc1ccc2c(c1)/C(=C/CN1CCC(Cc3ccccc3)CC1)c1ccccc1CO2`, the Ki is reported as “Not Active”.

target: T1, Muscarinic acetylcholine receptor M1 (Homo sapiens, UniProt P11229); assay: Inhibition of muscarinic-1 receptor binding at a concentration of 10 uM; Showed negligible activities; conditions: not given
T1 sequence (P11229 whole entry): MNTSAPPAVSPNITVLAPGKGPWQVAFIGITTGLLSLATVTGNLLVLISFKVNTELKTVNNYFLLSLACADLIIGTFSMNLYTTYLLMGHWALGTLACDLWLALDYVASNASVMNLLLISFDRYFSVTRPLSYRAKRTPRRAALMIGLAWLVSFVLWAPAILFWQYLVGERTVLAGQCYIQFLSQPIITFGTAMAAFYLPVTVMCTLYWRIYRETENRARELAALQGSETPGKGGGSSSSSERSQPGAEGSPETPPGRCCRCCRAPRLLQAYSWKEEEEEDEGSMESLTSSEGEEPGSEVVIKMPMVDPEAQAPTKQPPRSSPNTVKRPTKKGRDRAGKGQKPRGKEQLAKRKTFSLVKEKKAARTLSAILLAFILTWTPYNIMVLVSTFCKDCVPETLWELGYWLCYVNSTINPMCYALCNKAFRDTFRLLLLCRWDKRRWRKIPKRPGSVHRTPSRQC

For `O=C(O)Cc1ccc2c(c1)/C(=C/CN1CCC(Cc3ccccc3)CC1)c1ccccc1CO2`, the Ki was “Not Active”.

target: T2, Prostaglandin E2 receptor EP3 subtype (Homo sapiens, UniProt P43115); assay: Inhibition of prostaglandin E2 receptor binding at a concentration of 10 uM; Showed negligible activities; conditions: not given
T2 sequence (P43115 whole entry): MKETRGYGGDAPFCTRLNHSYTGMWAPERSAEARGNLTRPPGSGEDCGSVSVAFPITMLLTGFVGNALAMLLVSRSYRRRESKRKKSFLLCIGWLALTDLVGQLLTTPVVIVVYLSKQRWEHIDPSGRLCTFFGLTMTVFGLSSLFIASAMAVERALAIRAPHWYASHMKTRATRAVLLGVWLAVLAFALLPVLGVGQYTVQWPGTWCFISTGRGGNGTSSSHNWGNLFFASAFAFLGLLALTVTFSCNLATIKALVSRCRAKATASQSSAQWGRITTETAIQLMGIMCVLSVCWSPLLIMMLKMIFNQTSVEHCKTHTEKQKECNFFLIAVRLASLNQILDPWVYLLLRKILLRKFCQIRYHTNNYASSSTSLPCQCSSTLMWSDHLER

With `O=C(O)Cc1ccc2c(c1)/C(=C/CN1CCC(Cc3ccccc3)CC1)c1ccccc1CO2` the Ki was “Not Active”.

target: Platelet-activating factor receptor (Homo sapiens, UniProt P25105); assay: Inhibition of platelet-activating factor binding at a concentration of 10 uM; Showed negligible activities; conditions: not given
Sequence (P25105 whole entry): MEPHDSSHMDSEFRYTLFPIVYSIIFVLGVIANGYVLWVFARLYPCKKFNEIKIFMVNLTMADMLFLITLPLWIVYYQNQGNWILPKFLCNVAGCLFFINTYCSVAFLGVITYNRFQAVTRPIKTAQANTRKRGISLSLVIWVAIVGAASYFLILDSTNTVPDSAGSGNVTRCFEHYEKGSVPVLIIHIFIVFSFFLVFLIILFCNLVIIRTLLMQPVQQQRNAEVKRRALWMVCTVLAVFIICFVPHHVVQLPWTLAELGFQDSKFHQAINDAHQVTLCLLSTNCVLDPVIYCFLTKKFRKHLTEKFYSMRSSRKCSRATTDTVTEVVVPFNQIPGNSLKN

In the case of `O=C(O)Cc1ccc2c(c1)/C(=C/CN1CCC(Cc3ccccc3)CC1)c1ccccc1CO2`, the Ki is reported as “Not Active”.

tested on: not listed separately; assay: Inhibition of prostaglandin I2 receptor binding at a concentration of 10 uM; Showed negligible activities; conditions: not given

With `O=C(O)Cc1ccc2c(c1)/C(=C/CN1CCC(Cc3ccccc3)CC1)c1ccccc1CO2` the Ki was “Not Active”.

tested on: Rattus norvegicus; assay: Compound concentration inhibiting 48 hr homologous passive cutaneous Anaphylaxis in rats peroral administration; No efficacy; format: functional, organism-based; conditions: not given

With `O=C(O)COc1ccc(CCNS(=O)(=O)c2ccccc2)cc1` [SULOTROBAN] the ED50 was “inactive”.

tested on: Rattus norvegicus; assay: Compound concentration inhibiting 48 hr homologous passive cutaneous Anaphylaxis in rats peroral administration; format: functional; conditions: po

Compared with `CN(C)CCSC1c2ccccc2COc2ccc(C(=O)O)cc21` (centres undefined), `CN(C)C/C=C1\c2ccccc2COc2ccc(CC(=O)O)cc21` is 12-fold lower in ED50: 0.92 mg/kg for the first, 0.077 mg/kg for the second.

Compared with `CN1CCC(=C2c3ccccc3CC(=O)c3sccc32)CC1` [KETOTIFEN], `O=C(O)Cc1ccc2c(c1)/C(=C/CN1CCC(Cc3ccccc3)CC1)c1ccccc1CO2` is 6.6-fold lower in ED50: 4.8 mg/kg for the first, 0.73 mg/kg for the second.

tested on: not listed separately; assay: Lethal concentration in 50% rats peroral administration of compound; format: ADME, organism-based; conditions: rat, in vivo, po

Molecule `O=C(O)Cc1ccc2c(c1)/C(=C/CN1CCC(Cc3ccccc3)CC1)c1ccccc1CO2` has an LD50 of over 1000 mg/kg.

target: 5-hydroxytryptamine receptor 5B (Rattus norvegicus, UniProt P35365); assay: Inhibition of serotonin receptor binding at a concentration of 10 uM; Showed negligible activities; conditions: not given
Sequence (P35365 whole entry): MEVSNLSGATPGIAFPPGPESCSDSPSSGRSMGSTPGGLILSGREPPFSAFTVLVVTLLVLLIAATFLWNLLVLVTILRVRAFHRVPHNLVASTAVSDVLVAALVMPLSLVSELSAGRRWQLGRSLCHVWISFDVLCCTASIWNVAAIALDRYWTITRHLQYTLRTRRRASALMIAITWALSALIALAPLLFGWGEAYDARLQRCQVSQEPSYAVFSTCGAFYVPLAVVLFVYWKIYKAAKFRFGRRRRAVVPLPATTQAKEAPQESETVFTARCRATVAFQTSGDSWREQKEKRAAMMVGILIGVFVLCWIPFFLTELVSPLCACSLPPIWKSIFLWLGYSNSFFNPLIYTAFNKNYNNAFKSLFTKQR

For `O=C(O)Cc1ccc2c(c1)/C(=C/CN1CCC(Cc3ccccc3)CC1)c1ccccc1CO2`, the Ki was “Not Active”.

species on record: Cavia porcellus; assay: Inhibitory effect on the specific binding of [3H]U-46619 to guinea pig platelets TXA2/PGH2 receptors at 1 uM; conditions: not given

`CN(C)CCSC1c2ccccc2COc2ccc(C(=O)O)cc21` (centres undefined) showed an inhibition of 18%.

tested on: not listed separately; assay: Affinity for TXA2 / PGH-2 receptors in guinea pig platelets, by inhibition of [3H]U-46619 binding; conditions: not given

First: O=C(O)c1ccc2c(c1)C(SCCN1CCC(Cc3ccccc3)CC1)c1ccccc1CO2 (racemic)
Second: O=C(O)Cc1ccc2c(c1)C(SCCN1CCC(Cc3ccccc3)CC1)c1ccccc1CO2 (centres undefined)
The Ki of the first is 3.1-fold lower: 140 nM for the first, 430 nM for the second.

Compared with `O=C(O)c1ccc2c(c1)C(SCCNS(=O)(=O)c1ccccc1)c1ccccc1CO2` (centres undefined), `O=C(O)c1ccc2c(c1)C(SCCN1CCc3ccccc3C1)c1ccccc1CO2` (centres undefined) is 7.5-fold higher in Ki: 32 nM for the first, 240 nM for the second.

Compared with `O=C(O)CCc1ccc2c(c1)C(SCCN1CCC(Cc3ccccc3)CC1)c1ccccc1CO2` (centres undefined), `O=C(O)c1ccc2c(c1)C(SCCN1CCC(Cc3ccccc3)CC1)c1ccccc1CO2` (stereo in doubt; (-)12) is 8.1-fold lower in Ki: 340 nM for the first, 42 nM for the second.

Going from `O=C(O)c1ccc2c(c1)C(SCCN1CCN(c3ccc(F)cc3)CC1)c1ccccc1CO2` (centres undefined) to `O=C(O)c1ccc2c(c1)C(SCCN1CCN(c3ccccc3)CC1)c1ccccc1CO2` (centres undefined), the Ki falls from 400 nM to 210 nM (1.9-fold). The second binds more tightly here.

First: O=C(O)c1ccc2c(c1)C(SCCN1CCOCC1)c1ccccc1CO2 (centres undefined)
Second: O=C(O)c1ccc2c(c1)C(SCCN1CCC(c3ccccc3)CC1)c1ccccc1CO2 (centres undefined)
The Ki of the first is 1.9-fold higher: 1900 nM for the first, 990 nM for the second.

Compared with `O=C(O)c1ccc2c(c1)C(SCCN1CCC(n3c(O)nc4ccccc43)CC1)c1ccccc1CO2` (centres undefined), `O=C(O)c1ccc2c(c1)C(SCCN1CCC(Cc3ccccc3)CC1)c1ccccc1CO2` (stereo in doubt; (+)12) is 110-fold higher in Ki: 130 nM for the first, 14000 nM for the second.

`CN(C)C/C=C1\c2ccccc2COc2ccc(CC(=O)O)cc21` and `O=C(O)Cc1ccc2c(c1)/C(=C\CN1CCC(Cc3ccccc3)CC1)c1ccccc1CO2` cannot be ordered by Ki: over 1000 nM for the first, 2600 nM for the second.

Compared with `O=C(O)c1ccc2c(c1)/C(=C/Cn1cnc3ccccc31)c1ccccc1CO2`, `O=C(O)c1ccc2c(c1)/C(=C/CN1CCN(c3ccc(F)cc3)CC1)c1ccccc1CO2` is 150-fold higher in Ki: 15 nM for the first, 2300 nM for the second. The first binds more tightly here.

Going from `CC(C)(C(=O)O)c1ccc2c(c1)C(SCCN1CCC(Cc3ccccc3)CC1)c1ccccc1CO2` (centres undefined) to `O=C(O)c1ccc2c(c1)C(SCCN1CCN(Cc3ccccc3)CC1)c1ccccc1CO2` (centres undefined), the Ki falls from 1600 nM to 490 nM (3.3-fold).

`O=C(O)Cc1ccc2c(c1)/C(=C/CN1CCC(Cc3ccccc3)CC1)c1ccccc1CO2` showed a Ki of 740 nM.

tested on: Alpha-2 adrenergic receptor (Rattus norvegicus); assay: Inhibition of alpha-2 adrenergic receptor binding at a concentration of 10 uM; Showed negligible activities; conditions: not given

In the case of `O=C(O)Cc1ccc2c(c1)/C(=C/CN1CCC(Cc3ccccc3)CC1)c1ccccc1CO2`, the Ki is reported as “Not Active”.

tested on: Alpha-1 adrenergic receptor (Rattus norvegicus); assay: Inhibition of alpha-1 adrenergic receptor binding at a concentration of 10 uM; Showed negligible activities; conditions: not given

With `O=C(O)Cc1ccc2c(c1)/C(=C/CN1CCC(Cc3ccccc3)CC1)c1ccccc1CO2` the Ki was “Not Active”.
